Measured values taken from article PMC10934055, “α-Glucosidase Inhibitory Phytochemical Components of Chinese Endemic Plant Whitfordiodendron filipes var. tomentosum” (Plants, 2024).
Like-named read-outs stand apart in the source and are kept apart here.

What was measured:
α-Glucosidase [1] = target: T1, α-Glucosidase (Saccharomyces cerevisiae, UniProt P53341); assay: biochemical; settings: for inhibition at 4 µg/mL / inhibition at 6 µg/mL / inhibition at 10 µg/mL / inhibition at 2 µg/mL / inhibition at 8 µg/mL: read-out: α-glucosidase inhibition rate;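 as to all read-outs here: yeast α-glucosidase premixed with inhibitor in phosphate buffer for 15 min at 37 °C, then a further 15 min reaction with p-NPG substrate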
T1 construct: purchased Sigma (Sigma-Aldrich) G5003

α-glucosidase [2] = settings: read-out: IC50 (α-glucosidase inhibitory activity), cited from earlier work
[3] = read-out: IC50 (α-glucosidase inhibitory bioassay), baker's yeast α-glucosidase, p-NPG, pH 6.86, 37 °C

T1 sequence (P53341 whole entry): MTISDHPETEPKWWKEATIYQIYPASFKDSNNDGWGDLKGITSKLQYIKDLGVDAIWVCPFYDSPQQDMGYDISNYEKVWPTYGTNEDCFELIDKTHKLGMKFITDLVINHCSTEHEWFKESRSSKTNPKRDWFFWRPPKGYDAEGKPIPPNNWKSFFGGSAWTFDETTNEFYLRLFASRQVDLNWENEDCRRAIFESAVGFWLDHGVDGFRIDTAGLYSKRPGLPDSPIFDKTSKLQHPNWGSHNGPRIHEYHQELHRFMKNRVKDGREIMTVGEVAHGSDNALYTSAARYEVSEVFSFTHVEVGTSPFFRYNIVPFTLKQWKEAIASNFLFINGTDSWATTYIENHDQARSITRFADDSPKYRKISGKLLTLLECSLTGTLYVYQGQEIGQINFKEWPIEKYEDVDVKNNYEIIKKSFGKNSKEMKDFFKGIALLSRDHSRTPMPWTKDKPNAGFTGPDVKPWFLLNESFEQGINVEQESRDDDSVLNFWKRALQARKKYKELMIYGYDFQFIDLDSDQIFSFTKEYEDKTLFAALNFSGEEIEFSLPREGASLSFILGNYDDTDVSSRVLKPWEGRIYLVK

Row | Structure (SMILES) | α-glucosidase inhibitory activity (judgement in words) (α-Glucosidase [1]) | inhibition at 4 µg/mL (α-Glucosidase [1]) [%] | inhibition at 6 µg/mL (α-Glucosidase [1]) [%] | inhibition at 10 µg/mL (α-Glucosidase [1]) [%] | inhibition at 2 µg/mL (α-Glucosidase [1]; concentration 2.0 μg·mL-1) [%] | inhibition at 4 µg/mL (α-Glucosidase [1]; concentration 4.0 μg·mL-1) [%] | inhibition at 6 µg/mL (α-Glucosidase [1]; concentration 6.0 μg·mL-1) [%] | inhibition at 8 µg/mL (α-Glucosidase [1]; concentration 8.0 μg·mL-1) [%] | inhibition at 10 µg/mL (α-Glucosidase [1]; concentration 10.0 μg·mL-1) [%] | IC50 (α-Glucosidase [1]; [3]) [µM] | inhibition at 2 µg/mL (α-Glucosidase [1]) [%] | inhibition at 8 µg/mL (α-Glucosidase [1]) [%] | IC50 (α-Glucosidase [1]) [µM] | IC50 (α-glucosidase [2]; compound isolated from Buddleja saligna) [µM] | IC50 (α-Glucosidase [1]; baker's yeast α-glucosidase, p-NPG, pH 6.86, 37 °C, read-out: IC50 (α-glucosidase inhibitory bioassay)) [µM] | IC50 (α-glucosidase [2]; compounds isolated from Coffea canephora) [µM] | IC50 (α-glucosidase [2]; compound isolated from Sabia parviflora) [µM]
1 | CC1(C)CC[C@]2(C(=O)O)CC[C@]3(C)C(=CC[C@@H]4[C@@]5(C)CC[C@H](O)C(C)(C)[C@@H]5CC[C@]43C)[C@@H]2C1 [Compound 2, oleanolic acid] | significant inhibitory activities | 27.8 | 39.9 | 61.5 | – | – | – | – | – | – | – | – | – | – | – | – | –
2 | CC(C)(O)[C@@H]1CC[C@]2(C)CC[C@]3(C)[C@H](CC[C@@H]4[C@@]5(C)CC[C@H](O)C(C)(C)[C@@H]5CC[C@]43C)[C@@H]12 [Compound 3, monogynol A] | inactive | – | – | – | 2.2 | 3.1 | 3.4 | 3.4 | 4.3 | – | – | – | – | – | – | – | –
3 | CCC(CC[C@@H](C)[C@H]1CC[C@H]2[C@@H]3CCC4=CC(=O)CC[C@]4(C)[C@H]3CC[C@]12C)C(C)C (stereo partly drawn) [Compound 9, (20R)-24-ethylcholest-4-en-3-one] | – | 8.3 | 12.2 | 17.5 | – | – | – | – | – | < 100 | 6.1 | 15.6 | – | – | – | – | –
4 | C=C(C)[C@@H]1CC[C@]2(C(=O)O)CC[C@]3(C)[C@H](CC[C@@H]4[C@@]5(C)CCC(=O)C(C)(C)[C@@H]5CC[C@]43C)[C@@H]12 [Compound 6, betulonic acid] | significant inhibitory activities | – | – | – | 10.1 | 24.3 | 38.2 | 51.7 | 60.5 | – | – | – | 17.2 ± 0.27 | 60.1 | – | – | –
5 | CC(=O)O[C@H]1CC[C@]2(C)[C@H]3CC[C@@H]4[C@@H]([C@@](C)(O)CCC=C(C)C)CC[C@@]4(C)[C@]3(C)CC[C@H]2C1(C)C [Compound 8, dammar-24-ene-3β-acetoxy-20S-ol] | – | – | – | – | 3.7 | 6.2 | 8.1 | 10.2 | 11.1 | < 100 | – | – | – | – | – | – | –
6 | CC(=O)O[C@H]1CC[C@]2(C)[C@H]3CC=C4[C@@H]5CC(C)(C)CC[C@]5(C(=O)O)CC[C@@]4(C)[C@]3(C)CC[C@H]2C1(C)C [Compound 1, 3-acetyloleanolic acid] | significant inhibitory activities | 24.3 | 38.2 | 56.5 | – | – | – | – | – | – | 10.1 | 48.3 | – | – | 16.8 ± 0.23 | 146.9 ± 1.2 | –
7 | C=C(C)[C@@H]1CC[C@]2(C)CC[C@]3(C)[C@H](CC[C@@H]4[C@@]5(C)CC[C@H](O)C(C)(C)[C@@H]5CC[C@]43C)[C@@H]12 [Compound 4, lupeol] | significant inhibitory activities | – | – | – | 12.5 | 25.1 | 38.6 | 49.2 | 58.4 | – | – | – | 19.2 ± 0.17 | – | – | – | 452 ± 5.3
8 | CC[C@H](/C=C/[C@@H](C)[C@H]1CC[C@H]2[C@@H]3CC=C4C[C@@H](O)CC[C@]4(C)[C@H]3CC[C@]12C)C(C)C [Compound 10, stigmasterol] | – | 4.3 | 7.1 | 10.1 | – | – | – | – | – | < 100 | 2.4 | 9.6 | – | – | – | – | –
9 | CC(C)(O)[C@@H]1CC[C@]2(C)CC[C@]3(C)[C@H](CC[C@@H]4[C@@]5(C)CCC(=O)C(C)(C)[C@@H]5CC[C@]43C)[C@@H]12 [Compound 5, 20-hydroxy-lupan-3-one] | inactive | – | – | – | 7.2 | 9.3 | 11 | 13.4 | 15.8 | < 100 | – | – | – | – | – | – | –
10 | C[C@H]1O[C@H](O[C@H]2[C@H](O)[C@@H](O)[C@@H](O[C@H]3[C@H](O)[C@@H](O)C(O)O[C@@H]3CO)O[C@@H]2CO)[C@H](O)[C@@H](O)[C@@H]1N[C@H]1C=C(CO)[C@@H](O)[C@H](O)[C@H]1O (stereo partly shown) [acarbose, reference compound] | – | 25.3 | 37.9 | 65.7 | – | – | – | – | – | – | 11.1 | 52.4 | – | – | – | – | –
